Experimental data reported in patent publication US6903124B2, “Organic acid salt of amlodipine” (CJ Corp, priority 2002, dated 2005).

What was measured:
Format in all cases: physicochemical
[1] = Chemical stability in solid state, accelerated test at 60° C., HPLC content
Protocol: (§1) HPLC Analysis Conditions: • Detector: UV Absorbance (at 237 nm) • Column: Octadesyl silica gel C18 (4.6 mm×150 mm, 5 μm) • Mobile Phase: Potassium dihydrogenphosphate monobasic (0.03M): methanol=4:6 (v/v) • Flow Rate: 1.5 ml/min

[2] = Chemical stability in aqueous state, 25° C., 4 weeks in complete darkness, HPLC; conditions: distilled water
Protocol: as §1
The resulting aqueous solutions were stored at 25° C. for 4 weeks in complete darkness, after which a measurement was made of the contents of the salts with resort to HPLC under the same conditions as in the solid state.

[3] = Test for hygroscopicity: water content (K. F. water %) at 25° C. under various humidity conditions; conditions: for water content (K. F. water %): 25° C.
physchem = conditions: 37 °C

Row | SMILES | change in content, accelerated test [1] | HPLC content ([1]; 1 week) [%] | HPLC content ([1]; 2 weeks) [%] | HPLC content ([1]; 3 weeks) [%] | HPLC content ([1]; initial) [%] | stability in aqueous state (decomposition products, content change) [2] | water content (K. F. water %) ([3]; 25% RH, 1 week storage) [%] | water content (K. F. water %) ([3]; 60% RH, 1 week storage) [%] | water content (K. F. water %) ([3]; 75% RH, 1 week storage) [%] | water content (K. F. water %) ([3]; 95% RH, 1 week storage) [%] | water content (K. F. water %) ([3]; Initial) [%] | solubility (physchem; pH 2, aqueous buffer) [mg/mL] | solubility (physchem; pH 4, aqueous buffer) [mg/mL] | solubility (physchem; pH 6, aqueous buffer) [mg/mL] | solubility (physchem; pH 7, aqueous buffer) [mg/mL] | solubility (physchem; pH 7.4, aqueous buffer) [mg/mL] | solubility (physchem; pH 8, aqueous buffer) [mg/mL] | solubility (physchem; water) [mg/mL] | hygroscopicity ([3]; relative humidity 95%) [%]
1 | CCOC(=O)C1=C(COCCN)NC(C)=C(C(=O)OC)C1c1ccccc1Cl (stereo not drawn) [Besylate, amlodipine besylate, reference compound] | virtually no changes | 99.6 | 99.4 | 99.2 | 99.6 | neither decomposition products nor content change is found | 0.10 | 0.09 | 0.15 | 0.17 | 0.14 |  |  |  |  |  |  |  | 
2 | CCOC(=O)C1=C(COCCN)NC(C)=C(C(=O)OC)C1c1ccccc1Cl.CCS(=O)(=O)O (stereo not drawn) [Ethanesulfonate, amlodipine ethanesulfonate] | virtually no changes | 99.6 | 99.6 | 99.5 | 99.7 | neither decomposition products nor content change is found | 0.08 | 0.09 | 0.13 | 0.15 | 0.12 | > 200 | > 200 | > 200 | > 200 | > 200 | > 200 | > 200 | ≤ 0.5
